The source of these data is patent publication US20140213538A1, “LYSOPHOSPHATIDIC ACID RECEPTOR ANTAGONISTS” (InterMune, Inc., priority 2013, published 2014).

In the experiment the target is T1, LPA/S1P GPCR of interest (Homo sapiens, UniProt Q92633).
T1 construct: host or cells: CHO
Nature of the experiment: Beta-Arrestin based assay (PathHunter). The format is cell-based. The method, then:
CMV promoter based DNA constructs expressing a fusion of the LPA/S1P GPCR of interest and ProLink™ tag were used to transfect EA Parental™ CHO cells (DiscoverX, Fremont, Calif.) using a FuGENE® transfection kit (Roche). Beta-Arrestin based assays were conducted 24-48 hrs post transfection using PathHunter® assay kits (DiscoverX, Fremont, Calif.). Agonist and antagonist assays were performed in quadruplicate in white 384 well plates. End point luminescence data were plotted and fit to a 4 parameter logistic function to obtain IC50 values. For antagonist assays, an IC80 concentration of agonist (LPA) equal to 0.5 micromolar was used.

T1 sequence (Q92633 whole entry): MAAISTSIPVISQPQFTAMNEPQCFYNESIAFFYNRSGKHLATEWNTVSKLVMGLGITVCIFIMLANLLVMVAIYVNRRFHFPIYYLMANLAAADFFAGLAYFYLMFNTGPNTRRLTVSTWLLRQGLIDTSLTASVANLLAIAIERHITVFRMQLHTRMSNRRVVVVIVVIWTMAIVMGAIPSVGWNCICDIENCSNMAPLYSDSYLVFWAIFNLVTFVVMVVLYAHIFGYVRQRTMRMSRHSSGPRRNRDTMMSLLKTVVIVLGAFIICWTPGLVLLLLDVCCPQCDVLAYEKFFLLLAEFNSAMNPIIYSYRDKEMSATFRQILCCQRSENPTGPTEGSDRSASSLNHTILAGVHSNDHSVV

Usually EC50 stands for the midpoint of the concentration-response curve. Regarding `C[C@@H](OC(=O)Nc1c(-c2ccc(-c3cnc(C4(C(=O)O)CC4)s3)cc2)nnn1C)c1ccccc1` [IT278], the concentration giving a half-maximal response (EC50) was in the range of 50 to 500 nM.
The value for `Cc1noc(-c2ccc3c(c2)CCCc2cc(CC(=O)O)ccc2-3)c1NC(=O)O[C@H](C)c1ccccc1` [IT280] was below 50 nM; that for `Cc1nsc(-c2cc3sc(-c4ccc5[nH]cc(CC(=O)O)c5c4)cc3s2)c1NC(=O)O[C@H](C)c1ccccc1` [IT283] was above 500 nM.
The value for `Cc1nsc(-c2cc3sc(-c4cc(Cl)c(C5(C(=O)O)CC5)cc4F)cc3s2)c1NC(=O)O[C@H](C)c1ccccc1` [IT286] was 50 to 500 nM; that for `C[C@@H](OC(=O)Nc1c(-c2cc3sc(-c4ccc(-c5nnc(C6(C(=O)O)CC6)s5)cc4)cc3s2)cnn1C)c1ccccc1` [IT287] was above 500 nM; that for `C[C@@H](OC(=O)Nc1c(-c2cc3sc(-c4ccc(-c5nnc(C6(C(=O)O)CC6)s5)cc4)cc3s2)nnn1C)c1ccccc1` [IT288] was 50 to 500 nM.
The value for `Cc1nsc(-c2cc3sc(-c4ccc(-c5nnc(C6(C(=O)O)CC6)s5)cc4)cc3s2)c1NC(=O)O[C@H](C)c1ccccc1` [IT289] was above 500 nM; that for `Cc1nsc(-c2cc3sc(-c4ccc5c(CC(=O)O)coc5c4)cc3s2)c1NC(=O)O[C@H](C)c1ccccc1` [IT290] was above 500 nM.
In turn, `Cc1cc(-c2cc3sc(-c4snc(C)c4NC(=O)O[C@H](C)c4ccccc4)cc3s2)ccc1CC(=O)O` [IT292] came in with an EC50 above 500 nM.
For the molecule `C[C@@H](OC(=O)Nc1c(-c2cc3sc(-c4ccc(CC(=O)O)c(F)c4)cc3s2)nnn1C)c1ccccc1` [IT293], the EC50 was in the range of 50 to 500 nM.
The value for `Cc1nsc(-c2cc3sc(-c4ccc(CC(=O)O)c(F)c4)cc3s2)c1NC(=O)O[C@H](C)c1ccccc1` [IT294] was 50 to 500 nM; that for `Cc1nsc(-c2cc3sc(-c4ccc(C5(C(=O)O)CC5)c(F)c4)cc3s2)c1NC(=O)O[C@H](C)c1ccccc1` [IT297] was below 50 nM; that for `C[C@@H](OC(=O)Nc1c(-c2cc3sc(-c4ccc5[nH]cc(CC(=O)O)c5c4)cc3s2)nnn1C)c1ccccc1` [IT298] was 50 to 500 nM.
The value for `C[C@@H](OC(=O)Nc1c(-c2cc3sc(-c4ccc(C5(C(=O)O)CC5)cc4C(F)(F)F)cc3s2)nnn1C)c1ccccc1` [IT299] was 50 to 500 nM; that for `Cc1nsc(-c2cc3sc(-c4ccc(CC(=O)O)c5ccccc45)cc3s2)c1NC(=O)O[C@H](C)c1ccccc1` [IT317] was above 500 nM.
The value for `C[C@@H](OC(=O)Nc1c(-c2cc3sc(-c4ccc(CC(=O)O)c5ccccc45)cc3s2)nnn1C)c1ccccc1` [IT318] was above 500 nM; that for `C[C@@H](OC(=O)Nc1c(-c2cc3sc(-c4ccc(CC(=O)O)c5ccccc45)cc3s2)cnn1C)c1ccccc1` [IT319] was above 500 nM.
Take `C[C@@H](OC(=O)Nc1c(-c2cc3sc(-c4ccc(C5(C(=O)O)CC5)c5ccccc45)cc3s2)cnn1C)c1ccccc1` [IT320]: the EC50 is above 500 nM.
`C[C@@H](OC(=O)Nc1c(-c2cc3sc(-c4ccc(C5(C(=O)O)CC5)c5ccccc45)cc3s2)nnn1C)c1ccccc1` [IT321] yielded an EC50 of 50 to 500 nM.
The value for `Cc1nsc(-c2cc3sc(-c4ccc(C5(C(=O)O)CC5)c5ccccc45)cc3s2)c1NC(=O)O[C@H](C)c1ccccc1` [IT322] was above 500 nM; that for `Cc1cc(-c2cc3sc(-c4cnn(C)c4NC(=O)O[C@H](C)c4ccccc4)cc3s2)ccc1C1(C(=O)O)CC1` [IT323] was 50 to 500 nM; that for `Cc1cc(-c2cc3sc(-c4nnn(C)c4NC(=O)O[C@H](C)c4ccccc4)cc3s2)ccc1C1(C(=O)O)CC1` [IT324] was 50 to 500 nM.
The value for `Cc1cc(-c2cc3sc(-c4snc(C)c4NC(=O)O[C@H](C)c4ccccc4)cc3s2)ccc1C1(C(=O)O)CC1` [IT325] was 50 to 500 nM.
The value for `Cc1nsc(-c2cc3sc(-c4cc(F)c(CC(=O)O)cc4F)cc3s2)c1NC(=O)O[C@H](C)c1ccccc1` [IT326] was 50 to 500 nM; that for `C[C@@H](OC(=O)Nc1c(-c2cc3sc(-c4cc(F)c(CC(=O)O)cc4F)cc3s2)cnn1C)c1ccccc1` [IT327] was 50 to 500 nM.
`C[C@@H](OC(=O)Nc1c(-c2cc3sc(-c4cc(F)c(CC(=O)O)cc4F)cc3s2)nnn1C)c1ccccc1` [IT328] returned an EC50 of 50 to 500 nM.
The value for `COc1cc(-c2cc3sc(-c4cnn(C)c4NC(=O)O[C@H](C)c4ccccc4)cc3s2)ccc1C1(C(=O)O)CC1` [IT329] was 50 to 500 nM; that for `COc1cc(-c2cc3sc(-c4nnn(C)c4NC(=O)O[C@H](C)c4ccccc4)cc3s2)ccc1C1(C(=O)O)CC1` [IT330] was 50 to 500 nM.
The molecule `COc1cc(-c2cc3sc(-c4snc(C)c4NC(=O)O[C@H](C)c4ccccc4)cc3s2)ccc1C1(C(=O)O)CC1` [IT331] showed an EC50 of 50 to 500 nM.
The value for `C[C@@H](OC(=O)Nc1c(-c2cc3sc(-c4ccc5occ(CC(=O)O)c5c4)cc3s2)cnn1C)c1ccccc1` [IT332] was 50 to 500 nM; that for `Cc1nsc(-c2cc3sc(-c4ccc5occ(CC(=O)O)c5c4)cc3s2)c1NC(=O)O[C@H](C)c1ccccc1` [IT333] was 50 to 500 nM; that for `C[C@@H](OC(=O)Nc1c(-c2cc3sc(-c4ccc5occ(C6(C(=O)O)CC6)c5c4)cc3s2)cnn1C)c1ccccc1` [IT334] was above 500 nM.
Turning to `C[C@@H](OC(=O)Nc1c(-c2cc3sc(-c4ccc5occ(C6(C(=O)O)CC6)c5c4)cc3s2)nnn1C)c1ccccc1` [IT335], the EC50 was above 500 nM.
The value for `Cc1nsc(-c2cc3sc(-c4ccc(CC(=O)O)cc4C(F)(F)F)cc3s2)c1NC(=O)O[C@H](C)c1ccccc1` [IT337] was above 500 nM; that for `Cc1cc(-c2cc3sc(-c4snc(C)c4NC(=O)O[C@H](C)c4ccccc4)cc3s2)c(F)cc1C1(C(=O)O)CC1` [IT338] was 50 to 500 nM.
The value for `Cc1cc(-c2cc3sc(-c4cnn(C)c4NC(=O)O[C@H](C)c4ccccc4)cc3s2)c(F)cc1C1(C(=O)O)CC1` [IT339] was 50 to 500 nM; that for `Cc1cc(-c2cc3sc(-c4nnn(C)c4NC(=O)O[C@H](C)c4ccccc4)cc3s2)c(F)cc1C1(C(=O)O)CC1` [IT340] was 50 to 500 nM.
Turning to `Cc1cc(C2(C(=O)O)CC2)c(F)cc1-c1cc2sc(-c3cnn(C)c3NC(=O)O[C@H](C)c3ccccc3)cc2s1` [IT342], the EC50 is below 50 nM.
The molecule `Cc1cc(C2(C(=O)O)CC2)c(F)cc1-c1cc2sc(-c3snc(C)c3NC(=O)O[C@H](C)c3ccccc3)cc2s1` [IT343] returned an EC50 below 50 nM.
Molecule `Cc1nsc(-c2cc3sc(-c4cc(F)c(C5(C(=O)O)CC5)cc4F)cc3s2)c1NC(=O)O[C@H](C)c1ccccc1` [IT346] showed an EC50 below 50 nM.
The value for `COc1cc(-c2cc3sc(-c4cnn(C)c4NC(=O)O[C@H](C)c4ccccc4)cc3s2)c(OC)cc1CC(=O)O` [IT349] was above 500 nM; that for `COc1cc(-c2cc3sc(-c4nnn(C)c4NC(=O)O[C@H](C)c4ccccc4)cc3s2)c(OC)cc1CC(=O)O` [IT350] was above 500 nM.
The value for `COc1cc(-c2cc3sc(-c4snc(C)c4NC(=O)O[C@H](C)c4ccccc4)cc3s2)c(OC)cc1CC(=O)O` [IT351] was above 500 nM; that for `Cc1nsc(-c2cc3sc(-c4ccc5occ(C6(C(=O)O)CC6)c5c4)cc3s2)c1NC(=O)O[C@H](C)c1ccccc1` [IT352] was above 500 nM.
The value for `C[C@@H](OC(=O)Nc1c(-c2cc3sc(-c4ccc5scc(CC(=O)O)c5c4)cc3s2)cnn1C)c1ccccc1` [IT353] was 50 to 500 nM; that for `Cc1nsc(-c2cc3sc(-c4ccc5scc(CC(=O)O)c5c4)cc3s2)c1NC(=O)O[C@H](C)c1ccccc1` [IT354] was above 500 nM; that for `Cc1noc(-c2ccc(-c3ccc(Oc4cccc(C(=O)O)c4)cc3)cc2)c1NC(=O)O[C@H](C)c1ccccc1` [IT356] was 50 to 500 nM.
As for `COc1cc(C2(C(=O)O)CC2)ccc1-c1cc2sc(-c3nnn(C)c3NC(=O)O[C@H](C)c3ccccc3)cc2s1` [IT357], the EC50 lay within 50 to 500 nM.
The value for `COc1cc(-c2cc3sc(-c4nnn(C)c4NC(=O)O[C@H](C)c4ccccc4)cc3s2)cnc1C1(C(=O)O)CC1` [IT358] was 50 to 500 nM.
As to `COc1cc(-c2cc3sc(-c4snc(C)c4NC(=O)O[C@H](C)c4ccccc4)cc3s2)cnc1C1(C(=O)O)CC1` [IT359], the EC50 fell in the range of 50 to 500 nM.
The value for `COc1cc(C2(C(=O)O)CC2)ccc1-c1cc2sc(-c3snc(C)c3NC(=O)O[C@H](C)c3ccccc3)cc2s1` [IT360] was above 500 nM; that for `Cc1cc(C2(C(=O)O)CC2)ccc1-c1cc2sc(-c3snc(C)c3NC(=O)O[C@H](C)c3ccccc3)cc2s1` [IT361] was below 50 nM.
Turning to `C[C@@H](OC(=O)Nc1c(-c2cc3sc(-c4ccc(CC(=O)O)cc4C(F)(F)F)cc3s2)cnn1C)c1ccccc1` [IT362], the EC50 is above 500 nM.
The value for `C[C@@H](OC(=O)Nc1c(-c2cc3sc(-c4ccc(CC(=O)O)cc4C(F)(F)F)cc3s2)nnn1C)c1ccccc1` [IT363] was above 500 nM.
As for `Cc1nsc(-c2cc3sc(-c4ccc(C5(C(=O)O)CC5)c(F)c4F)cc3s2)c1NC(=O)O[C@H](C)c1ccccc1` [IT366], the EC50 is below 50 nM.
The value for `C[C@@H](OC(=O)Nc1c(-c2cc3sc(-c4ccc(C5(C(=O)O)CC5)c(Cl)c4)cc3s2)cnn1C)c1ccccc1` [IT367] was below 50 nM; that for `Cc1noc(-c2ccc(-c3ccc(Oc4ccc(C(=O)O)cc4)cc3)cc2)c1NC(=O)O[C@H](C)c1ccccc1` [IT368] was above 500 nM.
The value for `C[C@@H](OC(=O)Nc1c(-c2cc3sc(-c4ccc5c(CC(=O)O)coc5c4)cc3s2)nnn1C)c1ccccc1` [IT369] was 50 to 500 nM; that for `C[C@@H](OC(=O)Nc1c(-c2cc3sc(-c4ccc5scc(C6(C(=O)O)CC6)c5c4)cc3s2)cnn1C)c1ccccc1` [IT370] was above 500 nM.
The value for `C[C@@H](OC(=O)Nc1c(-c2ccc(C#CC(=O)O)cc2)cnn1C)c1ccccc1` [IT371] was above 500 nM.
On to `C[C@@H](OC(=O)Nc1c(-c2cc3sc(-c4ccc5scc(C6(C(=O)O)CC6)c5c4)cc3s2)nnn1C)c1ccccc1` [IT372], for which the EC50 was above 500 nM.
